Reference: patent US9897592B2, “Methods for identifying arthropod repellents and attractants, and compounds and compositions identified by such methods” (The Regents of the University of California, priority 2013, dated 2018)

Key:
cpA neuron [1] = test: Single-sensillum recording: activation of cpA neuron by odorants; type: cell-based, Aedes aegypti; conditions: for Activation (spikes s^−1): A. aegypti cpA, 0.5-s pulses, odorants 10^−2 in paraffin oil or water, solvent response subtracted
Summary of the method: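 Single-sensillum extracellular recordings from cp sensilla of adult female A. aegypti (Rockefeller), 3-12 days post-emergence. Odorants at 10^−2 in paraffin oil or water, 0.5-s pulses; solvent response subtracted, spikes counted; n=2-6, sensilla with <20 spikes s^−1 to negative control only.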

cpA neuron [2] = test: cpA dose response in C. quinquefasciatus; type: cell-based, Culex quinquefasciatus
Method: FIG. 4d is a graph illustrating the dose responses of the cpA neuron to cyclopentanone in A. aegypti and C. quinquefasciatus, where n=5-6.
Adult female A. aegypti (Linnaeus 1762) (Rockefeller strain) A. gambiae sensu stricto Giles 1902 (G3 strain), or C. quinquefasciatus Say 1823 were tested 3-12 days post-emergence with single-sensillum extracellular recordings. Chemicals were obtained from Sigma-Aldrich at the highest purity (typically >99%) and were dissolved in paraffin oil or water. […] Response to clean beads was subtracted from the results reported. Only sensilla with cpA activity of <20 spikes s^−1 to negative control were considered for analysis.
Taken together, the strong and conserved cpA response, promising safety and fragrance profile, and ability to mimic CO2 activation made cyclopentanone an excellent candidate for behavioural testing.

C. quinquefasciatus = test: Semi-field two-choice greenhouse trapping; type: in vivo, Culex quinquefasciatus
From the text: FIG. 4g is a schematic of two-choice greenhouse experiments with two counterflow geometry traps, in which mosquitoes were trapped overnight in odorant-baited and solvent (water)-baited traps.
Semi-field trapping: Two modified greenhouses at the Agricultural Experiment Station at the University of California, Riverside, were used as described previously^2, with modifications. Fifty laboratory-reared, mated, non-blood fed female C. quinquefasciatus aged 8-14 days and starved for 24 hrs were released each evening around 5 pm and traps collected at ˜7 am. Counter flow geometry traps baited with CO2 (250 ml min^−1, ˜670 mmol/hr) odorant were used as described^2, with modifications. Odorant solutions in water were dispensed from 20 cm long gauze wicks protruding from uncapped 50 ml tubes beneath the trap outflow. For each trial, one baited trap and one control trap (water-filled) were placed in each of two greenhouses (FIG. 4g). For two-choice CO2 trials, water was placed under both traps. For two-choice ethyl pyruvate trials, both traps expelled CO2, and one trap also released ethyl pyruvate from an open 2.8×7 cm glass vial. Since ethyl pyruvate has very low volatility pure compound was used to generate ˜1.7 mmol/hr. An empty vial was placed under control traps. Treatment position and trap were alternated across trials. Volume of solution lost from tubes containing 5%, 10%, or 20% cyclopentanone were measured after each trial and the average loss of molecules calculated respectively for 3 concentrations as (±s.d.) of 0.7 (±0.1), 1.7 (±0.4), and 3.8 (±0.3) mmol/hr, respectively. Preference index=(# mosquitoes in odor-baited trap−# mosquitoes in control trap)/(total # mosquitoes caught in both traps).
The efficacy of cyclopentanone as a lure was tested using traps in controlled semi-field experiments with C. quinquefasciatus, a mosquito present in Southern California, where the experiments took place. 50 female mosquitoes were released overnight in a modified greenhouse that contained two counter-flow geometry mosquito traps (FIG. 4g). One trap was baited with an evaporative lure of cyclopentanone diluted in water, and the second trap was baited with water alone.

[3] = system: mammalian cation channels; conditions: cited from earlier work
[4] = biological target: human acetylcholinesterase (Homo sapiens, UniProt P22303); conditions: cited from earlier work
Sequence of human acetylcholinesterase (P22303 32-614): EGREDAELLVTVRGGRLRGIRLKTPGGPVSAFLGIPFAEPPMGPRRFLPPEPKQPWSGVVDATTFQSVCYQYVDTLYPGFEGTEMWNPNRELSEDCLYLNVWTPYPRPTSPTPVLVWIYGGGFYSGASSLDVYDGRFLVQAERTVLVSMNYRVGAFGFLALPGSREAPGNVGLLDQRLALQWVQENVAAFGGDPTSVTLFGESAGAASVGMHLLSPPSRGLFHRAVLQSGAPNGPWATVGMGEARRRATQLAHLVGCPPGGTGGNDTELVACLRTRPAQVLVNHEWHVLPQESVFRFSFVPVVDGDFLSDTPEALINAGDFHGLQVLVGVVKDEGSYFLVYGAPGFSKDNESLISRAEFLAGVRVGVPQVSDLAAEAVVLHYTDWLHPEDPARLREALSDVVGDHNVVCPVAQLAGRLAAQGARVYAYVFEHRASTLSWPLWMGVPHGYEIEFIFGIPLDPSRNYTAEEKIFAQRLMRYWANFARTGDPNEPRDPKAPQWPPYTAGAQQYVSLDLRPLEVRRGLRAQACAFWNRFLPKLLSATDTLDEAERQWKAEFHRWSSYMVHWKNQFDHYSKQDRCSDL

cpA neuron [5] = test: Inhibition screen: odorant overlaid on 0.15% CO2 stimulus, cpA response; type: cell-based, Aedes aegypti; conditions: overlaid on 0.15% CO2
Method: Percent inhibition was calculated by comparing mean odorant overlay responses to mean solvent overlay responses, and error bars are s.d.
CpA-off and sham treated mosquitoes were pre-treated for 3 min in an upended 1 L glass dish in which 100 μl of fresh butyryl chloride (1%) or paraffin oil was allowed to vaporize for 10-20 min. The odor delivery system for different screens is shown in FIG. 7b; solvent responses during the same recording session were subtracted. Inhibition screen was tested. For the ultra-prolonged activator the 3-s stimulus was delivered from a 10 ml disposable pipette using a CS-55 stimulus controller (Syntech), CO2 was delivered, and responses to subsequent odor stimuli were calculated by subtracting baseline activity 1 s prior to each stimulus. When responses to repeated pulses of cyclopentanone and CO2 were compared, baseline activity between seconds 5 and 6 following each stimulus was subtracted. Spike counting was done manually or with Igor Pro6.2 (Wavemetrics) with the Neuromatic v2.00 macro (by Jason Rothman), and peak-to-peak spike amplitudes for FIG. 8 were analysed in Clampfit 10.3 (Molecular Devices).

cpA neuron [6] = test: Ethyl pyruvate overlaid on foot odor stimulus, cpA response; type: cell-based, Aedes aegypti; conditions: presented together, 1-s 10^−2 on 2-s foot odor
From the text: FIG. 4b depicts representative trace and mean response when a 1-s stimulus of ethyl pyruvate (10^−2) is overlaid on a 2-s stimulus of foot odor (mixed beads from Person 1 and Person 2), where n=6.
The cpA inhibitor ethyl pyruvate was selected for testing since it is listed as a GRAS compound, is approved as a flavor agent in food, and has a pleasant smell (fruity, sweet, rum, caramel) (Table 3 above).

A. aegypti = test: Hand-in-cage repellency assay; type: in vivo, Aedes aegypti; conditions: mesh treated 500 μl, 10% in acetone
From the text: FIG. 4c depicts representative images (left) of hand-in-cage assay mesh window and a graph (right) illustrating the mean number of mosquitoes on the netting at the indicated time points for ethyl pyruvate-treated or solvent-treated netting. n=8 each.
Forty 4-10-day-old female A. aegypti were starved 24 hrs and released in a 30×30 cm cage with a glass top, and trials commenced between 1400 and 1700 hrs. A human hand wearing a nitrile glove (Sol-vex) with a 7×6 cm window covered by two layers of fine polyester mesh (BioQuip, mesh size 26×22 holes per in^2) held in place by magnetic spacers, was inserted into the cage. The lower mesh was 1.5 mm above, and upper mesh was 6 mm above the hand. While skin emanations passed freely through the mesh window, the hand was protected from contact with mosquitoes and treated mesh. The outside mesh was treated with ethyl pyruvate (500 μl, 10% in acetone) or solvent. After letting solvent evaporate the glove was assembled. […] Trials were video recorded and mosquitoes on the mesh were counted every 15 s.
An arm-in-cage repellency assay was used in this Example using gloves with chemical treated mesh-covered windows to quantify attraction of A. aegypti mosquitoes to the human hand without exposing the hand to mosquito bites or skin to contact with test chemicals.

| SMILES | Activation (spikes s^−1) (cpA neuron [1]) | cpA activation (cpA neuron [1]; A. aegypti dose response) | cpA activation (cpA neuron [2]) | fold fewer molecules released than CO2 for comparable catch rate (C. quinquefasciatus; calculated from amount evaporated) | trap preference, odorant-baited vs solvent-baited trap (C. quinquefasciatus; evaporative lure in water, overnight) | capture numbers relative to CO2-baited traps (C. quinquefasciatus; similar trials in parallel) | inhibition of mammalian cation channels [3] | inhibition of human acetylcholinesterase [4] | inhibition of cpA activity (cpA neuron [5]) | response of cpA neuron to human foot odor (cpA neuron [6]) | number of times mosquitoes landed on mesh over human hand (A. aegypti) | catch of CO2-baited trap also dispensing odorant vs control CO2-baited trap (C. quinquefasciatus; pure compound, ~1.7 mmol/hr) |
| --- | --- | --- | --- | --- | --- | --- | --- | --- | --- | --- | --- | --- |
| O=C1CCCC1 [Cyclopentanone] | 120.1 spikes s^−1 | strong activator | strong activator | ~176 fold | preferred cyclopentanone over solvent-baited traps in a dose-dependent manner | comparable | – | – | – | – | – | – |
| CCN(CC)C(=O)c1cccc(C)c1 [DEET, N,N-Diethyl-m-toluamide] | – | – | – | – | – | – | inhibit | inhibit | – | – | – | – |
| CCOC(=O)C(C)=O [ethyl 2-oxopropanoate] | −63.0 spikes s^−1 | – | – | – | – | – | – | – | strongly inhibited | completely eliminates | substantially reduced | significantly fewer mosquitoes |
